This passage reports Ki and inhibition results from US5756517A, “Use of bisquinoline compounds in the treatment of cerebral disorders” (Bayer Aktiengesellschaft, priority 1996, dated 1998).

The target in experiment [1] is apamin binding sites / apamin receptors (apamin-sensitive potassium channels), calves' cerebral membrane. Briefly: Binding of 125I-apamin to calves' cerebral membrane. As to conditions: displacement of 125I-apamin (30 pM), calf hippocampus membranes, 60 min on ice. The procedure: 1) Binding of ^125 I-apamin to calves' cerebral membrane
Calf brains were obtained from the local abattoir. The hippocampus was prepared on ice and a membrane suspension was made up by homogenization twice in buffer (100 mM Tris-HCl, KCl 5 mM, pH 7.4) and centrifugation at 43,000×g. In a total volume of 500 μl, the incubation mixture contained 200 μg of membrane protein, 30 pM ^125 I-apamin and test substances in the concentration range 1×10^-9 to 1×10^-4 M. The non-specific binding of ^125 I-apamin was determined in the presence of 1×10^-7 M unlabeled apamin.
After preincubation for 30 min at room temperature (test substances and membrane homogenate), the samples were placed on ice for 10 min before the radioligand was added. The main incubation time was 60 min on ice. When the reaction time had elapsed, an excess of ice-cooled incubation buffer was added to each sample and the mixture was filtered with suction through cellulose acetate/nitrate membrane filters. The amount of bound ^125 I-apamin was measured with a gamma counter.
(In general: Displacement assays read how much labelled ligand stays bound in the presence of the test substance.)

The test system of experiment [2] is apamine-sensitive potassium channels in PC12 cells. As to the kind of experiment: Non-radioactive Rb+ efflux assay for the identification of potassium channel modulators (PC12 cells). In kind it is cell-based. As to conditions: Rattus norvegicus, PC-12, 10 min, 10 min stimulation with 50 mM KCl, read-out: % inhibition of the Rb efflux at a test concentration of 10 μM. The procedure: 2) Non-radioactive Rb^+ efflux assay for the identification of potassium channel modulators
The cellular potassium in PC12 cells is exchanged with rubidium, which is not present in the cells. This exchange is performed by incubating the cells over a period of 4 h in a physiological buffer containing 5.4 mM RbCl without KCl. This rubidium subsequently serves as a tracer for potassium. The cells laden with Rb^+ in this way are washed three times and then stimulated by depolarization with 50 mM KCl to open potassium channels (10 min), causing Rb^+ to flow out of the cells into the supernatant according to the concentration gradient.
The rubidium contents in the cell supernatant and in the residual cells after they have been lyzed with 1% Triton X-100 are then. determined by means of atomic absorption spectroscopy. The relative proportion of rubidium in the cell supernatant (=Rb^+ efflux) is used as a measure of the potassium channel activity.
The effect of substances on the channel activity is measured by co-incubating the test substance over the ten-minute stimulation period and determining its effect on the Rb^+ efflux in the manner described above.

`Cc1cc(NCCC(O)CCNc2cc(C)nc3ccccc23)c2ccccc2n1` [Example 14] displayed a Ki in experiment [1] of 190 nM.
Regarding `Cc1cc(NCC(O)CNc2cc(C)nc3ccccc23)c2ccccc2n1` [Example 15], the inhibition at 10 µM in experiment [2] amounted to 73%.

The term Ki denotes a measure of affinity in units of concentration, obtained from inhibition or displacement. Lower therefore signals a stronger hold on the target.
